Measurements as given in ChEMBL document CHEMBL5053557, “Discovery of Novel Dual-Target Inhibitor of Bromodomain-Containing Protein 4/Casein Kinase 2 Inducing Apoptosis and Autophagy-Associated Cell Death for Triple-Negative Breast Cancer Therapy” (J Med Chem, 2021).
Calls of active or inactive are those of the source. The calls are words filed in the database; no cut-off is given here.

Experiments:
[1] = molecular target: Bromodomain-containing protein 2 (Homo sapiens, UniProt P25440); assay: Inhibition of BRD2 BD2 (unknown origin) incubated for 2 hrs by TR-FRET assay
Mus musculus [2] = assay: Toxicity in nude BALB/c mouse xenografted with human MDA-MB-468 cells assessed as morphological changes in heart at 25 to 50 mg/kg, po administered once daily for 19 days and measured every 3 days by H and E staining based assay; assay type: organism-based; conditions: in vivo, 456 h, dose 25-50 mg/kg, time 19 day
MDA-MB-468 [3] = assay: Induction of apoptosis in human MDA-MB-468 cells after 24 hrs by Hoechst 33258 staining fluorescence microscopic analysis; assay type: functional, cell-based; conditions: dose 2.5-10 µM
[4] = molecular target: T1, Bromodomain testis-specific protein (Homo sapiens, UniProt Q58F21); assay: Inhibition of BRDT BD1 (unknown origin) incubated for 2 hrs by TR-FRET assay
MDA-MB-468 [5] = assay: Induction of autophagy in human MDA-MB-468 cells harboring GFP-mRFP-LC3 assessed as down regulation of p62 level at 5 uM after 24 hrs by Western blot analysis; assay type: functional, cell-based
[6] = molecular target: T2, Bromodomain-containing protein 4 (Homo sapiens, UniProt O60885); assay: Inhibition of BRD4 BD1 (unknown origin) incubated for 2 hrs by TR-FRET assay
Mus musculus [7] = assay: Toxicity in nude BALB/c mouse xenografted with human MDA-MB-231 cells assessed as change in body weight at 25 to 50 mg/kg, po administered once daily for 19 days and measured every 3 days; assay type: organism-based; conditions: in vivo, 456 h, dose 25-50 mg/kg, time 19 day
[8] = Half life in Sprague-Dawley rat at 1 mg/kg, iv by LC-MS analysis; assay type: ADME, organism-based; conditions: in vivo
MCF-10A = assay: Antiproliferative activity against human MCF-10A cells incubated for 24 hrs by MTT assay; assay type: cell-based
MDA-MB-231 [9] = assay: Antitumor activity against human MDA-MB-231 cells xenografted in po dosed nude BALB/c mouse assessed as tumor growth inhibition administered once daily for 19 days and measured every 3 days; assay type: functional, organism-based; conditions: dose lower […], dose upper 50.0 mg/kg, time 19.0 day
[10] = molecular target: T1, Bromodomain testis-specific protein; assay: Inhibition of BRDT BD2 (unknown origin) incubated for 2 hrs by TR-FRET assay
[11] = molecular target: T2, Bromodomain-containing protein 4; assay: Inhibition of BRD4 BD2 (unknown origin) incubated for 2 hrs by TR-FRET assay
MDA-MB-231 [12] = assay: Induction of autophagy in human MDA-MB-231 cells harboring GFP-mRFP-LC3 assessed as down regulation of p62 level at 5 uM after 24 hrs by Western blot analysis; assay type: functional, cell-based
MDA-MB-468 [13] = assay: Induction of apoptosis in human MDA-MB-468 cells after 24 hrs by Annexin V-FITC/propidium iodide staining based flow cytometry; assay type: functional, cell-based; conditions: dose 2.5-10 µM
MDA-MB-468 [14] = assay: Inhibition of colony formation in human MDA-MB-468 cells after 7 days by crystal violet staining based assay; assay type: functional, cell-based; conditions: dose 2.5-10 µM, time 7.0 day
MDA-MB-231 [15] = assay: Induction of apoptosis in human MDA-MB-231 cells after 24 hrs by Hoechst 33258 staining fluorescence microscopic analysis; assay type: functional, cell-based; conditions: dose 2.5-10 µM
MDA-MB-468 [16] = assay: Induction of apoptosis in human MDA-MB-468 cells at 5 uM preincubated with 3-MA for 1 hr followed by compound addition and measured after 24 hrs by Annexin V-FITC/propidium iodide staining based flow cytometric analysis; assay type: functional, cell-based
MDA-MB-231 [17] = assay: Inhibition of colony formation in human MDA-MB-231 cells at 5 uM after 7 days in presence of 3-MA by crystal violet staining based assay; assay type: functional, cell-based; conditions: time 7.0 day
MDA-MB-231 [18] = assay: Antitumor activity against human MDA-MB-231 cells xenografted in nude BALB/c mouse assessed as tumor growth inhibition at 25 to 50 mg/kg, po administered once daily for 19 days and measured every 3 days by Ki-67 staining based immunohistochemical analysis; assay type: functional, organism-based; conditions: dose lower […], dose upper 50.0 mg/kg, time 19.0 day
Mus musculus [19] = assay: Toxicity in nude BALB/c mouse xenografted with human MDA-MB-468 cells assessed as morphological changes in lung at 25 to 50 mg/kg, po administered once daily for 19 days and measured every 3 days by H and E staining based assay; assay type: organism-based; conditions: in vivo, 456 h, dose 25-50 mg/kg, time 19 day
MDA-MB-468 [20] = assay: Induction of autophagy in human MDA-MB-468 cells harboring GFP-mRFP-LC3 assessed as up regulation of beclin 1 level at 2.5 to 10 uM after 24 hrs by Western blot analysis; assay type: functional, cell-based; conditions: dose 2.5-10 µM
MDA-MB-468 [21] = assay: Induction of apoptosis in human MDA-MB-468 cells assessed as down regulation of Bcl2 after 24 hrs by Western blot analysis; assay type: functional, cell-based; conditions: dose 2.5-10 µM
Mus musculus [22] = assay: Toxicity in nude BALB/c mouse xenografted with human MDA-MB-231 cells assessed as mortality at 25 to 50 mg/kg, po administered once daily for 19 days and measured every 3 days; assay type: organism-based; conditions: in vivo, 456 h, dose 25-50 mg/kg, time 19 day
[23] = Cmax in Sprague-Dawley rat at 1 mg/kg, iv by LC-MS analysis; assay type: ADME, organism-based; design: dose 1 mg/kg, route iv; conditions: in vivo
MDA-MB-468 [24] = assay: Induction of autophagy in human MDA-MB-468 cells at 5 uM preincubated with 3-MA for 1 hr followed by compound addition and measured after 24 hrs by fluorescence microscopic analysis; assay type: functional, cell-based
[25] = Cmax in Sprague-Dawley rat at 10 mg/kg, po by LC-MS analysis; assay type: ADME, organism-based; design: dose 10 mg/kg, route po; conditions: in vivo
Mus musculus [26] = assay: Toxicity in nude BALB/c mouse xenografted with human MDA-MB-231 cells assessed as morphological changes in spleen at 25 to 50 mg/kg, po administered once daily for 19 days and measured every 3 days by H and E staining based assay; assay type: organism-based; conditions: in vivo, 456 h, dose 25-50 mg/kg, time 19 day
[27] = molecular target: T3, Bromodomain-containing protein 3 (Homo sapiens, UniProt Q15059); assay: Inhibition of BRD3 BD2 (unknown origin) incubated for 2 hrs by TR-FRET assay
[28] = molecular target: T3, Bromodomain-containing protein 3; assay: Inhibition of BRD3 BD1 (unknown origin) incubated for 2 hrs by TR-FRET assay
MDA-MB-231 [29] = assay: Induction of apoptosis in human MDA-MB-231 cells after 24 hrs by Annexin V-FITC/propidium iodide staining based flow cytometry; assay type: functional, cell-based; conditions: dose 2.5-10 µM
Mus musculus [30] = assay: Toxicity in nude BALB/c mouse xenografted with human MDA-MB-468 cells assessed as morphological changes in kidney at 25 to 50 mg/kg, po administered once daily for 19 days and measured every 3 days by H and E staining based assay; assay type: organism-based; conditions: in vivo, 456 h, dose 25-50 mg/kg, time 19 day
[31] = AUC(0 to t) in Sprague-Dawley rat at 1 mg/kg, iv by LC-MS analysis; assay type: ADME, organism-based; design: dose 1 mg/kg, route iv; conditions: in vivo
Mus musculus [32] = assay: Toxicity in nude BALB/c mouse xenografted with human MDA-MB-231 cells assessed as morphological changes in lung at 25 to 50 mg/kg, po administered once daily for 19 days and measured every 3 days by H and E staining based assay; assay type: organism-based; conditions: in vivo, 456 h, dose 25-50 mg/kg, time 19 day
MDA-MB-468 [33] = assay: Induction of apoptosis in human MDA-MB-468 cells assessed as up regulation of Bax after 24 hrs by Western blot analysis; assay type: functional, cell-based; conditions: dose 2.5-10 µM
[34] = AUC(0 to infinity) in Sprague-Dawley rat at 1 mg/kg, iv by LC-MS analysis; assay type: ADME, organism-based; design: time infinity, dose 1 mg/kg, route iv; conditions: in vivo
Mus musculus [35] = assay: Toxicity in nude BALB/c mouse xenografted with human MDA-MB-468 cells assessed as mortality at 25 to 50 mg/kg, po administered once daily for 19 days and measured every 3 days; assay type: organism-based; conditions: in vivo, 456 h, dose 25-50 mg/kg, time 19 day
[36] = molecular target: T2, Bromodomain-containing protein 4; assay: Inhibition of BRD4 BD1/BD2 (unknown origin) incubated for 2 hrs by TR-FRET assay

T3 sequence (Q15059 whole entry): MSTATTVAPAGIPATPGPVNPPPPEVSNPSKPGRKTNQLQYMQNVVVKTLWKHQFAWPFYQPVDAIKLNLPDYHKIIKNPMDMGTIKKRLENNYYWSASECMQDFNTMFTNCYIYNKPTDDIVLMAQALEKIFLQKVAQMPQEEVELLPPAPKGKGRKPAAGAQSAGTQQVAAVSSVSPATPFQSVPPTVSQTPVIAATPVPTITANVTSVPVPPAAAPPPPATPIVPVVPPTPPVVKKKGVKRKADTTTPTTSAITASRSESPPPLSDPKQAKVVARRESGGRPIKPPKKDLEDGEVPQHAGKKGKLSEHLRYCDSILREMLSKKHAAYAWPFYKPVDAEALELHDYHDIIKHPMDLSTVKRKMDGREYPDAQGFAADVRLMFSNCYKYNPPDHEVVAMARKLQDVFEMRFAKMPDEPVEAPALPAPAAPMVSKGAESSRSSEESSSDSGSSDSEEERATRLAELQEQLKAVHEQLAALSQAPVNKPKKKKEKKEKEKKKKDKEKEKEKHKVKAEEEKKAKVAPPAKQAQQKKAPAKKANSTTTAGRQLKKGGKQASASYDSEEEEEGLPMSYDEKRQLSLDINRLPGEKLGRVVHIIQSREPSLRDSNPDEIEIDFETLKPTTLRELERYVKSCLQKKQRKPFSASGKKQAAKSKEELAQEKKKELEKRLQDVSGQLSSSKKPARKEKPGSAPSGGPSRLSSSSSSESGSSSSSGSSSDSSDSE
Bromodomain-containing protein 2, sequence (P25440 whole entry): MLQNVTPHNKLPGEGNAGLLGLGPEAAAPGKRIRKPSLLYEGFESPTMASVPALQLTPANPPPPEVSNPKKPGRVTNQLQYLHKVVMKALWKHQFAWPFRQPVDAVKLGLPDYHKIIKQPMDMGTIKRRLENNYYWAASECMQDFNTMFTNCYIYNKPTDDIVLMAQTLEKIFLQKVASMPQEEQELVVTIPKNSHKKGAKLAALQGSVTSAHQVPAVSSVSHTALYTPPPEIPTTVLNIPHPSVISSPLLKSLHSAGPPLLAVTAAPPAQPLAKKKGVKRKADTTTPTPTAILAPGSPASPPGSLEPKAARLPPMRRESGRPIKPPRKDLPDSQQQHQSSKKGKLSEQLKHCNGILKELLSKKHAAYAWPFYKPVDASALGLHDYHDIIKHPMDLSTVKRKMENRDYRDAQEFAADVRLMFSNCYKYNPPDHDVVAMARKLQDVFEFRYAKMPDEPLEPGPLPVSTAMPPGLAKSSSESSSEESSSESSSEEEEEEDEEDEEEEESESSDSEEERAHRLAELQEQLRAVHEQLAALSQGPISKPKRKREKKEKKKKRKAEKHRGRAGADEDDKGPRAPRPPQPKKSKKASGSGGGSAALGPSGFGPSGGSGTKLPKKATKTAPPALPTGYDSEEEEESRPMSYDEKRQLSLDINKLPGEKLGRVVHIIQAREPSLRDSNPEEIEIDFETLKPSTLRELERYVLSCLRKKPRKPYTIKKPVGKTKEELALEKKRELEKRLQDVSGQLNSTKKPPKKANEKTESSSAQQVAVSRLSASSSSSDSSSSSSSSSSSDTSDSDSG

SMILES: COc1cc(OC)c2c(=O)[nH]c(-c3ccc(OCC(=O)Nc4ccc(N5CCN(C)CC5)c(Cl)c4)cc3)nc2c1
- IC50 [1]: 8.7 µM
- Activity (Mus musculus [2]): Non-Toxic
- Activity (MDA-MB-468 [3]): Dose-dependent effect
- IC50 [4]: > 10 µM
- Activity (MDA-MB-468 [5]): Active
- IC50 [6]: 0.193 µM
- Activity (Mus musculus [7]): Non-Toxic
- half-life [8]: 4.21 h
- Activity (MCF-10A): Non-Toxic
- Activity (MDA-MB-231 [9]): Active
- IC50 [10]: > 10 µM
- IC50 [11]: 0.098 µM
- Activity (MDA-MB-231 [12]): Active
- Activity (MDA-MB-468 [13]): Dose-dependent effect
- inhibition (MDA-MB-468 [14]): Dose-dependent effect
- Activity (MDA-MB-231 [15]): Dose-dependent effect
- Activity (MDA-MB-468 [16]): inactive
- inhibition (MDA-MB-231 [17]): inactive
- Activity (MDA-MB-231 [18]): Active
- Activity (Mus musculus [19]): Non-Toxic
- Activity (MDA-MB-468 [20]): Active
- Activity (MDA-MB-468 [21]): Dose-dependent effect
- Activity (Mus musculus [22]): Non-Toxic
- Cmax [23]: 237 ng/mL
- Activity (MDA-MB-468 [24]): inactive
- Cmax [25]: 206 ng/mL
- Activity (Mus musculus [26]): Non-Toxic
- IC50 [27]: > 10 µM
- IC50 [28]: 9.2 µM
- Activity (MDA-MB-231 [29]): Dose-dependent effect
- Activity (Mus musculus [30]): Non-Toxic
- AUC(0-t) [31]: 579 ng·h/mL
- Activity (Mus musculus [32]): Non-Toxic
- Activity (MDA-MB-468 [33]): Dose-dependent effect
- AUC [34]: 588 ng·h/mL
- Activity (Mus musculus [35]): Non-Toxic
- IC50 [36]: 0.18 µM
